# According to a compilation of properties of binary mixtures (doi:10.1007/s10953-009-9410-7):
# Assay: xn = mol fraction of the nth substance listed
# Conditions: 101 kPa
smiles,measurement,setting,value
CCCC[n+]1ccn(C)c1.N#C[S-] + CCCCCCO,viscosity,"298.15 K, x2 = 0",51.7 mPa·s
same,viscosity,"298.15 K, x2 = 0.0424",44.4 mPa·s
same,viscosity,"298.15 K, x2 = 0.3093",26.1 mPa·s
same,viscosity,"298.15 K, x2 = 0.453",18.2 mPa·s
same,viscosity,"298.15 K, x2 = 0.5773",13.8 mPa·s
same,viscosity,"298.15 K, x2 = 0.6307",12.1 mPa·s
same,viscosity,"298.15 K, x2 = 0.6962",10.3 mPa·s
same,viscosity,"298.15 K, x2 = 0.7583",8.77 mPa·s
same,viscosity,"298.15 K, x2 = 0.8512",6.83 mPa·s
same,viscosity,"298.15 K, x2 = 0.9102",5.87 mPa·s
same,viscosity,"308.15 K, x2 = 0",34.9 mPa·s
same,viscosity,"308.15 K, x2 = 0.0424",29.7 mPa·s
same,viscosity,"308.15 K, x2 = 0.3093",18.3 mPa·s
same,viscosity,"308.15 K, x2 = 0.5773",10.2 mPa·s
same,viscosity,"308.15 K, x2 = 0.6307",9.01 mPa·s
same,viscosity,"308.15 K, x2 = 0.6962",7.67 mPa·s
same,viscosity,"308.15 K, x2 = 0.7583",6.54 mPa·s
same,viscosity,"308.15 K, x2 = 0.8512",5.15 mPa·s
same,viscosity,"318.15 K, x2 = 0",24.2 mPa·s
same,viscosity,"318.15 K, x2 = 0.0424",21 mPa·s
same,viscosity,"318.15 K, x2 = 0.1505",17.7 mPa·s
same,viscosity,"318.15 K, x2 = 0.3093",13.5 mPa·s
same,viscosity,"318.15 K, x2 = 0.453",9.87 mPa·s
same,viscosity,"318.15 K, x2 = 0.5773",7.71 mPa·s
same,viscosity,"318.15 K, x2 = 0.6962",5.87 mPa·s
same,viscosity,"318.15 K, x2 = 0.7583",4.98 mPa·s
same,viscosity,"318.15 K, x2 = 0.8512",3.99 mPa·s
same,viscosity,"328.15 K, x2 = 0",16.7 mPa·s
same,viscosity,"328.15 K, x2 = 0.0424",15.6 mPa·s
same,viscosity,"328.15 K, x2 = 0.1505",13.3 mPa·s
same,viscosity,"328.15 K, x2 = 0.3093",10.3 mPa·s
same,viscosity,"328.15 K, x2 = 0.453",7.65 mPa·s
same,viscosity,"328.15 K, x2 = 0.5773",6 mPa·s
same,viscosity,"328.15 K, x2 = 0.6307",5.39 mPa·s
same,viscosity,"328.15 K, x2 = 0.9102",2.69 mPa·s
same,viscosity,"338.15 K, x2 = 0",12.7 mPa·s
same,viscosity,"338.15 K, x2 = 0.1505",10.3 mPa·s
same,viscosity,"338.15 K, x2 = 0.6307",4.3 mPa·s
same,viscosity,"338.15 K, x2 = 0.6962",3.67 mPa·s
same,viscosity,"338.15 K, x2 = 0.7583",3.18 mPa·s
same,viscosity,"338.15 K, x2 = 0.8512",2.57 mPa·s
same,viscosity,"338.15 K, x2 = 0.9102",2.17 mPa·s
same,viscosity,"348.15 K, x2 = 0",9.98 mPa·s
same,viscosity,"348.15 K, x2 = 0.1505",8.26 mPa·s
same,viscosity,"348.15 K, x2 = 0.3093",6.54 mPa·s
same,viscosity,"348.15 K, x2 = 0.453",4.92 mPa·s
same,viscosity,"348.15 K, x2 = 0.5773",3.88 mPa·s
same,viscosity,"348.15 K, x2 = 0.6307",3.51 mPa·s
same,viscosity,"348.15 K, x2 = 0.6962",3.04 mPa·s
same,viscosity,"348.15 K, x2 = 0.7583",2.65 mPa·s
same,viscosity,"348.15 K, x2 = 0.8512",2.1 mPa·s
same,viscosity,"348.15 K, x2 = 0.9102",1.77 mPa·s
CCCC[n+]1ccn(C)c1.N#C[S-] + CCCCCO,viscosity,"298.15 K, x2 = 0",51.7 mPa·s
same,viscosity,"298.15 K, x2 = 0.0193",46.9 mPa·s
same,viscosity,"298.15 K, x2 = 0.1443",34.2 mPa·s
same,viscosity,"298.15 K, x2 = 0.2751",26 mPa·s
same,viscosity,"298.15 K, x2 = 0.3843",20 mPa·s
same,viscosity,"298.15 K, x2 = 0.487",15.5 mPa·s
same,viscosity,"298.15 K, x2 = 0.5557",12.7 mPa·s
same,viscosity,"298.15 K, x2 = 0.616",10.8 mPa·s
same,viscosity,"298.15 K, x2 = 0.7302",7.74 mPa·s
same,viscosity,"298.15 K, x2 = 0.7914",6.49 mPa·s
same,viscosity,"298.15 K, x2 = 0.856",5.38 mPa·s
same,viscosity,"298.15 K, x2 = 0.9135",4.56 mPa·s
same,viscosity,"308.15 K, x2 = 0",34.9 mPa·s
same,viscosity,"308.15 K, x2 = 0.2751",18.3 mPa·s
same,viscosity,"308.15 K, x2 = 0.3843",14.4 mPa·s
same,viscosity,"308.15 K, x2 = 0.487",11.4 mPa·s
same,viscosity,"308.15 K, x2 = 0.5557",9.5 mPa·s
same,viscosity,"308.15 K, x2 = 0.616",8.15 mPa·s
same,viscosity,"308.15 K, x2 = 0.7302",5.89 mPa·s
same,viscosity,"308.15 K, x2 = 0.7914",4.97 mPa·s
same,viscosity,"308.15 K, x2 = 0.856",4.14 mPa·s
same,viscosity,"318.15 K, x2 = 0",24.2 mPa·s
same,viscosity,"318.15 K, x2 = 0.0193",21.9 mPa·s
same,viscosity,"318.15 K, x2 = 0.1443",17 mPa·s
same,viscosity,"318.15 K, x2 = 0.2751",13.5 mPa·s
same,viscosity,"318.15 K, x2 = 0.3843",10.9 mPa·s
same,viscosity,"318.15 K, x2 = 0.487",8.74 mPa·s
same,viscosity,"318.15 K, x2 = 0.616",6.63 mPa·s
same,viscosity,"318.15 K, x2 = 0.7302",4.62 mPa·s
same,viscosity,"318.15 K, x2 = 0.7914",3.92 mPa·s
same,viscosity,"318.15 K, x2 = 0.856",3.27 mPa·s
same,viscosity,"318.15 K, x2 = 0.9135",2.77 mPa·s
same,viscosity,"328.15 K, x2 = 0",16.7 mPa·s
same,viscosity,"328.15 K, x2 = 0.0193",16.2 mPa·s
same,viscosity,"328.15 K, x2 = 0.1443",12.8 mPa·s
same,viscosity,"328.15 K, x2 = 0.2751",10.4 mPa·s
same,viscosity,"328.15 K, x2 = 0.3843",8.49 mPa·s
same,viscosity,"328.15 K, x2 = 0.487",6.84 mPa·s
same,viscosity,"328.15 K, x2 = 0.5557",5.74 mPa·s
same,viscosity,"328.15 K, x2 = 0.616",5.05 mPa·s
same,viscosity,"328.15 K, x2 = 0.7914",3.16 mPa·s
same,viscosity,"328.15 K, x2 = 0.856",2.63 mPa·s
same,viscosity,"328.15 K, x2 = 0.9135",2.22 mPa·s
same,viscosity,"338.15 K, x2 = 0.0193",12.5 mPa·s
same,viscosity,"338.15 K, x2 = 0.1443",9.98 mPa·s
same,viscosity,"338.15 K, x2 = 0.2751",8.2 mPa·s
same,viscosity,"338.15 K, x2 = 0.487",5.48 mPa·s
same,viscosity,"338.15 K, x2 = 0.5557",4.61 mPa·s
same,viscosity,"338.15 K, x2 = 0.7302",3.04 mPa·s
same,viscosity,"338.15 K, x2 = 0.7914",2.6 mPa·s
same,viscosity,"338.15 K, x2 = 0.856",2.16 mPa·s
same,viscosity,"338.15 K, x2 = 0.9135",1.81 mPa·s
same,viscosity,"348.15 K, x2 = 0",9.98 mPa·s
same,viscosity,"348.15 K, x2 = 0.0193",9.88 mPa·s
same,viscosity,"348.15 K, x2 = 0.1443",7.97 mPa·s
same,viscosity,"348.15 K, x2 = 0.487",4.47 mPa·s
same,viscosity,"348.15 K, x2 = 0.5557",3.78 mPa·s
same,viscosity,"348.15 K, x2 = 0.616",3.42 mPa·s
same,viscosity,"348.15 K, x2 = 0.7302",2.54 mPa·s
same,viscosity,"348.15 K, x2 = 0.856",1.8 mPa·s
CCCC[n+]1ccn(C)c1.N#C[S-] + CCCCO,viscosity,"298.15 K, x2 = 0",51.7 mPa·s
same,viscosity,"298.15 K, x2 = 0.0911",39.2 mPa·s
same,viscosity,"298.15 K, x2 = 0.3317",21.2 mPa·s
same,viscosity,"298.15 K, x2 = 0.4552",15.3 mPa·s
same,viscosity,"298.15 K, x2 = 0.6834",7.53 mPa·s
same,viscosity,"298.15 K, x2 = 0.8487",4.37 mPa·s
same,viscosity,"298.15 K, x2 = 0.8975",3.74 mPa·s
same,viscosity,"308.15 K, x2 = 0",34.9 mPa·s
same,viscosity,"308.15 K, x2 = 0.0911",26.5 mPa·s
same,viscosity,"308.15 K, x2 = 0.3317",15.2 mPa·s
same,viscosity,"308.15 K, x2 = 0.4552",11.3 mPa·s
same,viscosity,"308.15 K, x2 = 0.5596",8.44 mPa·s
same,viscosity,"308.15 K, x2 = 0.6222",7.04 mPa·s
same,viscosity,"308.15 K, x2 = 0.79",4.12 mPa·s
same,viscosity,"308.15 K, x2 = 0.8487",3.43 mPa·s
same,viscosity,"308.15 K, x2 = 0.8975",2.94 mPa·s
same,viscosity,"308.15 K, x2 = 0.9738",2.27 mPa·s
same,viscosity,"318.15 K, x2 = 0",24.2 mPa·s
same,viscosity,"318.15 K, x2 = 0.3317",11.5 mPa·s
same,viscosity,"318.15 K, x2 = 0.4552",8.7 mPa·s
same,viscosity,"318.15 K, x2 = 0.79",3.3 mPa·s
same,viscosity,"318.15 K, x2 = 0.8487",2.75 mPa·s
same,viscosity,"318.15 K, x2 = 0.8975",2.36 mPa·s
same,viscosity,"328.15 K, x2 = 0",16.7 mPa·s
same,viscosity,"328.15 K, x2 = 0.0911",14.2 mPa·s
same,viscosity,"328.15 K, x2 = 0.3317",8.92 mPa·s
same,viscosity,"328.15 K, x2 = 0.5596",5.16 mPa·s
same,viscosity,"328.15 K, x2 = 0.6222",4.39 mPa·s
same,viscosity,"328.15 K, x2 = 0.79",2.69 mPa·s
same,viscosity,"328.15 K, x2 = 0.8487",2.25 mPa·s
same,viscosity,"328.15 K, x2 = 0.8975",1.92 mPa·s
same,viscosity,"328.15 K, x2 = 0.9738",1.46 mPa·s
same,viscosity,"338.15 K, x2 = 0",12.7 mPa·s
same,viscosity,"338.15 K, x2 = 0.0911",11 mPa·s
same,viscosity,"338.15 K, x2 = 0.3317",7.12 mPa·s
same,viscosity,"338.15 K, x2 = 0.4552",5.51 mPa·s
same,viscosity,"338.15 K, x2 = 0.6834",3.08 mPa·s
same,viscosity,"338.15 K, x2 = 0.79",2.24 mPa·s
same,viscosity,"338.15 K, x2 = 0.8487",1.87 mPa·s
same,viscosity,"338.15 K, x2 = 0.8975",1.6 mPa·s
same,viscosity,"338.15 K, x2 = 0.9738",1.2 mPa·s
same,viscosity,"348.15 K, x2 = 0",9.98 mPa·s
same,viscosity,"348.15 K, x2 = 0.0911",8.82 mPa·s
same,viscosity,"348.15 K, x2 = 0.4552",4.51 mPa·s
same,viscosity,"348.15 K, x2 = 0.5596",3.5 mPa·s
same,viscosity,"348.15 K, x2 = 0.6222",3.02 mPa·s
same,viscosity,"348.15 K, x2 = 0.6834",2.59 mPa·s
same,viscosity,"348.15 K, x2 = 0.79",1.89 mPa·s
same,viscosity,"348.15 K, x2 = 0.8487",1.58 mPa·s
CCCCCCO + CCCC[n+]1ccn(C)c1.N#C[S-],viscosity,"298.15 K, x1 = 1",4.48 mPa·s
same,viscosity,"318.15 K, x1 = 1",2.55 mPa·s
same,viscosity,"328.15 K, x1 = 1",1.98 mPa·s
same,viscosity,"348.15 K, x1 = 1",1.28 mPa·s
CCCCCO + CCCC[n+]1ccn(C)c1.N#C[S-],viscosity,"308.15 K, x1 = 1",2.57 mPa·s
same,viscosity,"318.15 K, x1 = 1",2 mPa·s
same,viscosity,"328.15 K, x1 = 1",1.58 mPa·s
same,viscosity,"338.15 K, x1 = 1",1.27 mPa·s
same,viscosity,"348.15 K, x1 = 1",1.03 mPa·s
CCCCO + CCCC[n+]1ccn(C)c1.N#C[S-],viscosity,"298.15 K, x1 = 1",2.52 mPa·s
same,viscosity,"308.15 K, x1 = 1",1.97 mPa·s
same,viscosity,"318.15 K, x1 = 1",1.56 mPa·s
same,viscosity,"338.15 K, x1 = 1",1.02 mPa·s
